# In patent US12678416B2, “L-triiodothyronine (T3) for use in limiting microvascular obstruction” (UNI-PHARMA KLEON TSETIS PHARMACEUTICAL LABORATORIES S.A., priority 2019, dated 2026):
# “Also recorded” adds a separate entry of the source.
# Experiments:
# [1] = test system: reperfused STEMI patients; conditions: high-dose intracoronary, cohort of 247 reperfused STEMI patients; cited from earlier work
# [2] = test system: patients after acute myocardial infarction; conditions: long-term administration of high doses; cited from earlier work
# [3] = Thy-REPAIR phase II study: T3 levels in serum during hospitalization; type: in vivo, patients
# Method: (§1) The potential effect of early administration of high dose TH (acute treatment) after an index event has been also investigated in experimental models of ischemia-reperfusion (I/R) using isolated rat heart preparations. […] Thy-REPAIR explores the effects of high-dose T3 treatment intravenously starting immediately after reperfusion and continuing for 48 hours in patients with anterior or anterolateral STEMI undergoing primary PCI. This is a double-blind randomized trial. The primary end point of this study is recovery of myocardial function after 6 months of the index event as this is assessed by Cardiac Magnetic Resonance (CMR) at discharge and at 6 months after acute myocardial infarction. This study also explores the potential effects of T3 treatment on infarct size and cardiac remodeling by assessing changes in LV volumes and geometry.
# (§2) The dose administered is 0.8 μg/kg intravenously bolus starting immediately after successful opening of the culprit vessel has been established in the hemodynamic lab and followed by an infusion of 0.113 μg/kg/h intravenously for 48 hours.
# [4] = test system: STEMI patients; assay: Thy-REPAIR: heart rate during hospitalization; type: in vivo; conditions: during the first 3 days, high dose T3 vs placebo
# Method: as §1, §2
# Despite the possible increase in oxygen consumption, no increase in infarct size (IS) is found with T3 in contrast to the current belief (FIG. 3).
# [5] = test system: STEMI patients after PPCI; assay: Thy-REPAIR: contrast-enhanced cardiac magnetic resonance (MVO, infarct size, LV function); type: in vivo
# Method: as §1
# (§3) The invention in particular concerns L-triiodothyronine for use in the treatment as set forth in the appending claims. In the broader sense, the present invention concerns L-triiodothyronine for use in the treatment of microvascular obstruction. Treatment of MVO in this context relates to the lessening of microvascular obstruction in comparison to patients which were not supplied with T3. MVO may be determined on the basis of both Cardiac Magnetic Resonance (CMR) imaging, being performed 7-12 days following primary percutaneous coronary intervention (PPCI) and restoration of ST elevation in electrocardiogram (ECG). Infarct size and ejection fraction was measured by CMR. Infarct size was also assessed enzymatically by measuring levels of troponin in blood.
# as §2
# Actually, cardiac magnetic resonance with gadolinium represents the gold-standard method for detection of MVO in patients with STEMI. MVO can be quantified in each patient as the percentage of left ventricular (LV) myocardium that is not adequately perfused despite restoration of blood flow in the occluded large coronary artery.
# The incidence of MVO was assessed using the value of 0.47% as a cut-off point for patients with large and small extent of MVO as previously described. This analysis was additionally performed and provides a strong evidence about the T3 effect on MVO. In the placebo group (n=9), a large extent of MVO was found in 56% of patients consistent with previous published reports in the literature.
# [6] = test system: STEMI patients after PPCI; assay: Thy-REPAIR: ST resolution in electrocardiograms on admission and after PPCI; type: in vivo; conditions: placebo 34%, p=0.05
# Excerpt: as §3, §2
# These unexpected findings concerning MVO were also supported by other measurements. Changes in ST elevation in electrocardiograms before and after PPCI measured as ST restoration (%) are closely correlated with the extent of MVO (FIG. 6).
# [7] = test system: STEMI patients; assay: Thy-REPAIR: troponin levels in blood over time; type: in vivo; conditions: T3 vs placebo groups
# Excerpt: as §3, §2
# Troponin levels in blood over time are mainly a measure of myocardial injury. According to the present invention, troponin levels are similar between T3 and placebo groups indicating a similar infarct size in accordance with CMR data. Thus, it seems that the effect of T3 on MVO is independent from infarct size. (FIG. 8).
# [8] = test system: STEMI patients; assay: Thy-REPAIR: left ventricular ejection fraction by echocardiography; type: in vivo; conditions: early and late after the index event, T3 vs placebo
# Method: FIG. 12: Left ventricular ejection fraction assessed by echocardiography at different time points in STEMI patients treated with placebo and T3
# as §2
# [9] = test system: patients with STEMI and low serum FT3 levels; conditions: oral T3 for 6 months, cited from earlier work
# [10] = test system: isolated rat heart; conditions: ex vivo, cited from earlier work; for myocardial injury as indicated by apoptosis: at the onset of reperfusion
structure (smiles),measurement,setting,value
Nc1ncnc2c1ncn2[C@@H]1O[C@H](CO)[C@@H](O)[C@H]1O [adenosine],MVO and MI size,[1],failed to reduce
N[C@H](Cc1cc(I)c(Oc2cc(I)c(O)c(I)c2)c(I)c1)C(=O)O [D-thyroxine],mortality,[2],increased
"N[C@@H](Cc1cc(I)c(Oc2ccc(O)c(I)c2)c(I)c1)C(=O)O [T3, L-triiodothyronine]",T3 levels in serum relative to normal range,[3]; at discharge (7th day),return to normal
same,T3 levels in serum relative to normal range,[3]; for 72 hours,far above normal range
same,concentration at 24 h,"[3]; human, serum, at 24 hours, 0.8 μg/kg iv bolus then 0.113 μg/kg/h iv for 48 hours, placebo 0.79 (0.06), p<0.01",5.5 ng/mL
same,concentration at 48 h,"[3]; human, serum, at 48 hours, 0.8 μg/kg iv bolus then 0.113 μg/kg/h iv for 48 hours, placebo 0.76 (0.06), p<0.01",4.5 ng/mL
same,heart rate,[4],non-significant increase
same,extent of mean microvascular obstruction,"[5]; CMR at discharge (7-12 days after the event), T3 vs placebo",less
same,infarct size (IS) by CMR,"[5]; T3 vs placebo, at discharge",no increase; also recorded: similar
same,cardiac function by CMR,"[5]; at 6 months, T3 vs placebo",improvement
same,cardiac function,[5]; at discharge and at 6 months,improved
same,"myocardial function (EF %, LVEDVi and end-systolic volumes by CMR)","[5]; at discharge, T3 vs placebo",improved
same,recovery of function (ejection fraction at 6 months) versus myocardial injury (infarct size by CMR),[5]; correlation in T3 group,independent
same,patients with a large extent of MVO,"[5]; cut-off 0.47%, T3 group n=12, placebo (n=9) 56%, p=0.05",25%
same,mean ST resolution after PPCI,[6],54%
same,troponin levels in blood over time,[7],similar
same,LV ejection fraction by echocardiography,[8],improvement
same,regional cardiac dysfunction,"[9]; commenced 72 h after onset of STEMI, max 15 μg/m^2/day, 37 patients",effective in reducing
same,safety of T3 replacement therapy,[9]; commenced 72 h after onset of STEMI,safe
same,left ventricular ejection fraction and myocardial infarct size by cardiac MRI,[9],did not show any benefit
same,myocardial injury as indicated by apoptosis,[10],less
same,post-ischemic recovery of function,[10]; high dose at the onset of reperfusion,enhanced
"N[C@@H](Cc1cc(I)c(Oc2cc(I)c(O)c(I)c2)c(I)c1)C(=O)O [T4, L-thyroxine]",myocardial injury as indicated by apoptosis,[10],no effect
